Data on 2 compounds can be found in publication PMC6625793, “The autophagic membrane tether ATG2A transfers lipids between membranes” (eLife, 2019).

What all share (format): binding
One assay concerns the target T1, WIPI1 (Homo sapiens, UniProt Q5MNZ9).
T1 construct: residues 1-446; N-terminal 6xHis tag kept in flotation assays; expressed in Sf9 insect cells
T1 sequence (Q5MNZ9 1-446): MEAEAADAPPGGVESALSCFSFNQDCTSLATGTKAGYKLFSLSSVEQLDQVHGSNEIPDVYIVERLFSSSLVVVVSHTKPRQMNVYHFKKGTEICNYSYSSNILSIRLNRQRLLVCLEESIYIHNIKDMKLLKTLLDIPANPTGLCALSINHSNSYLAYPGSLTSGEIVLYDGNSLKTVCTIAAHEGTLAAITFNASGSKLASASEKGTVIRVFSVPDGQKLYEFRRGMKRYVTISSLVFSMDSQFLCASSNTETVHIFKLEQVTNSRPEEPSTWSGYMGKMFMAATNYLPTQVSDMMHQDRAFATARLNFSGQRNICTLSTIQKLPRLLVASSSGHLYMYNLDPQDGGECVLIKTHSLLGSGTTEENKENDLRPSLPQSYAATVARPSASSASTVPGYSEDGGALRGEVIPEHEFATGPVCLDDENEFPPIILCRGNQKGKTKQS
Put plainly: liposome flotation, western blot. To be noted: 20 mM HEPES pH 7.5, 150 mM NaCl, 1 mM TCEP; LUVs with 5% PI3P versus without PI3P. (In general: Immunoblotting shows a protein as a band on a membrane.)

The target in another assay is T2, WIPI4 (Homo sapiens, UniProt Q9Y484).
T2 construct: gene WDR45; N-terminal 10xHis tag kept in flotation assays; expressed in Sf9 insect cells
T2 sequence (Q9Y484 1-360): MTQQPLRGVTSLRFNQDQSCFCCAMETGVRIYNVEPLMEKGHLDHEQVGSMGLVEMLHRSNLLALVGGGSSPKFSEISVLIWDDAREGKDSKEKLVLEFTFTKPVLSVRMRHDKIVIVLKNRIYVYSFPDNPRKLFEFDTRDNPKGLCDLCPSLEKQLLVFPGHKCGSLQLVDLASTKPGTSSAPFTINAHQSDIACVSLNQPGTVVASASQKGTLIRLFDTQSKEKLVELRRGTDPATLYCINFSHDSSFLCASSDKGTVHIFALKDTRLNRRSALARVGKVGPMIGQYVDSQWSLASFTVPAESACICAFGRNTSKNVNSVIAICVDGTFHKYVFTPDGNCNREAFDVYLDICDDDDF
Put plainly: liposome flotation, western blot. The conditions noted are these: 20 mM HEPES pH 7.5, 150 mM NaCl, 1 mM TCEP; LUVs with 5% PI3P versus without PI3P.

The target in the next assay is T3, ATG2A (Homo sapiens, UniProt Q2TAZ0).
T3 construct: full-length (1938 residues); N-terminal GST cleaved by TEV, C-terminal TwinStrepII tag kept; expressed in Sf9 insect cells
Put plainly: lipid extraction from LUVs, Nycodenz flotation, native PAGE fluorescence. To be noted: 20 mM HEPES pH 7.5, 150 mM NaCl, 1 mM TCEP; ~22 °C; 20% NBD-PE/80% DOPC LUVs; labelled compound.

T3 sequence (Q2TAZ0 whole entry): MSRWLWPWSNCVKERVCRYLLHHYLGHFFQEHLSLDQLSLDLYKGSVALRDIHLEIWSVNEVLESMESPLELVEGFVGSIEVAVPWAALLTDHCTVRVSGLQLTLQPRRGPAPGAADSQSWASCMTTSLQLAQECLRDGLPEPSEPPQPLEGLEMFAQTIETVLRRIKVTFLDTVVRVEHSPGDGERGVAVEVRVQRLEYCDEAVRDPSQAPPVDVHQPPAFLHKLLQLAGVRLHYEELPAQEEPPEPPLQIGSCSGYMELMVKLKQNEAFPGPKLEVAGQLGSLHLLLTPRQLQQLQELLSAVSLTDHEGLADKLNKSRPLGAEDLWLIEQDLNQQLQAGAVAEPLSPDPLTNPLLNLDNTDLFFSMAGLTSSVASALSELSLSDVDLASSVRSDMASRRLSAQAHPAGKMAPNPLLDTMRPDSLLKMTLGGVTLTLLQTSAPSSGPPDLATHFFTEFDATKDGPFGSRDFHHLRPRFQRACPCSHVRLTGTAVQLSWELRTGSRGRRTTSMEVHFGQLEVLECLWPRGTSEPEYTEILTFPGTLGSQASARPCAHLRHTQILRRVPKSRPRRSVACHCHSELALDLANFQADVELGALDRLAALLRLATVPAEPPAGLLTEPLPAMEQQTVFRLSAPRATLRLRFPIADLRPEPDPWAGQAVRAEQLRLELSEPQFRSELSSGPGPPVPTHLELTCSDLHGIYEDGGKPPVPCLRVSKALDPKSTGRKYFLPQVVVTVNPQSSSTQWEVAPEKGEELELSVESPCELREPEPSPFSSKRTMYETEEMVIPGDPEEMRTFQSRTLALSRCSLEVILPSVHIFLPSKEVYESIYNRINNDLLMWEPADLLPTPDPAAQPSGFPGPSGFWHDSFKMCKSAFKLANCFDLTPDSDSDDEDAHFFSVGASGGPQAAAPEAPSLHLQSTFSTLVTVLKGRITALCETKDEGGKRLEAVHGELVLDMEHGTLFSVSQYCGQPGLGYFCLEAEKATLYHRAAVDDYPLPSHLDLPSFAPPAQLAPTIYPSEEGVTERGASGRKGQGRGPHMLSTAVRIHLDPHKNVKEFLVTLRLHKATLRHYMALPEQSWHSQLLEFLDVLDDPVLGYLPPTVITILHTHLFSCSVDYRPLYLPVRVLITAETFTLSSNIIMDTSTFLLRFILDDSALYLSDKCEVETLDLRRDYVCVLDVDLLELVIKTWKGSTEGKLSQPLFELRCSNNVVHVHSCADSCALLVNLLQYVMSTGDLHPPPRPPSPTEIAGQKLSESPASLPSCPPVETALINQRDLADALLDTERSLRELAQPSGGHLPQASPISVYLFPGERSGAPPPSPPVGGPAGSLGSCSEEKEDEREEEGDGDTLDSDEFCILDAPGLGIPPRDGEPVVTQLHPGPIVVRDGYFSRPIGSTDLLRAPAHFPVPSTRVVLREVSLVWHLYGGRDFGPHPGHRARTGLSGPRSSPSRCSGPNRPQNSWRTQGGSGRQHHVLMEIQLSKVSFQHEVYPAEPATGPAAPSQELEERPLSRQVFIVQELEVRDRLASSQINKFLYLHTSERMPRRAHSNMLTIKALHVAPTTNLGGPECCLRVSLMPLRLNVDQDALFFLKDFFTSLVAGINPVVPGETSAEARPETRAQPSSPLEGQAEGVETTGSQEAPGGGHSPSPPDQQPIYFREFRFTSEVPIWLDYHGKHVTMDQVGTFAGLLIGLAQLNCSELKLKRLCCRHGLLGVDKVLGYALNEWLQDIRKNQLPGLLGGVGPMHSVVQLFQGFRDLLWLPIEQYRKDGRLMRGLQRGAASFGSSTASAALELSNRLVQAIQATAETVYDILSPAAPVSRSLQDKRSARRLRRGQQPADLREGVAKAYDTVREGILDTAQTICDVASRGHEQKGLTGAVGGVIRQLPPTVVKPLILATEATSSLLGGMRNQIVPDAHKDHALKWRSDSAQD

As for `CCCCCCCC/C=C\CCCCCCCC(=O)OC[C@H](COP(=O)(O)O[C@@H]1[C@H](O)[C@H](OP(=O)(O)O)[C@@H](O)[C@H](O)[C@H]1O)OC(=O)CCCCCCC/C=C\CCCCCCCC` [PI3P], the “liposome flotation, western blot” value on WIPI1 and on WIPI4 was “both WIPIs bind to membranes in a PI3P-dependent manner” in each case.

For `CCCCCCCC/C=C\CCCCCCCC(=O)OC[C@H](COP(=O)(O)OCCNc1ccc([N+](=O)[O-])c2nonc12)OC(=O)CCCCCCC/C=C\CCCCCCCC` [NBD-PE, 1,2-dioleoyl-sn-glycero-3-phosphoethanolamine-N-(7-nitro-2–1,3-benzoxadiazol-4-yl)], the “lipid extraction from LUVs, Nycodenz flotation, native PAGE fluorescence” value on ATG2A was “ATG2A can extract NBD-PE from membranes and dissociate from the membrane with those lipids attached”.
